A word on the IC50: it is the concentration at which inhibition is half-maximal. Read a low IC50 as higher potency.

Converted amounts (≈) assume the structure as drawn. Numbered stars: 1 amine (or outer) side, 2 acyl side, 3 side chain; on linkers, the order of the positions; unused ones are H or OH. Bridge positions count the residues as written; N and C are the ends. Square brackets hold non-standard residues; d marks the D form. Peptide text beside a SMILES is read from it. * marks the point of attachment. X4 = CC(Oc1ccc(C(N[*:1])C(=O)[*:2])cc1)C(O)(C=CC(=O)[*:3])CCl; NMeF = CN[CH](Cc1ccccc1)C(=O)O; X3 = CC(C)C(O)C(C)C(=O)*

Among the data in publication PMC4029172 (eLife, 2014) are MIC and IC50 values, retold here.

Experiment [1] has as its system Haemophilus influenzae ATCC 49247. Nature of the experiment: microbe, parasite or virus in culture. The following applies: ATCC49247. Type of experiment: cell-based.
The subject of experiment [2] is Moraxella catarrhalis ATCC 25238. Nature of the experiment: microbe, parasite or virus in culture. The experiment is classed as cell-based. Conditions: ATCC25238.
The test system of experiment [3] is Enterobacter cloacae ATCC 13047. Nature of the experiment: microbe, parasite or virus in culture. Type of experiment: cell-based. Conditions: ATCC13047.
Experiment [4] concerns the target Thermus thermophilus RNAP (Thermus thermophilus, UniProt Q8RQE8+Q8RQE9). Description: biochemical.

Thermus thermophilus RNAP, sequence (Q8RQE8 whole entry): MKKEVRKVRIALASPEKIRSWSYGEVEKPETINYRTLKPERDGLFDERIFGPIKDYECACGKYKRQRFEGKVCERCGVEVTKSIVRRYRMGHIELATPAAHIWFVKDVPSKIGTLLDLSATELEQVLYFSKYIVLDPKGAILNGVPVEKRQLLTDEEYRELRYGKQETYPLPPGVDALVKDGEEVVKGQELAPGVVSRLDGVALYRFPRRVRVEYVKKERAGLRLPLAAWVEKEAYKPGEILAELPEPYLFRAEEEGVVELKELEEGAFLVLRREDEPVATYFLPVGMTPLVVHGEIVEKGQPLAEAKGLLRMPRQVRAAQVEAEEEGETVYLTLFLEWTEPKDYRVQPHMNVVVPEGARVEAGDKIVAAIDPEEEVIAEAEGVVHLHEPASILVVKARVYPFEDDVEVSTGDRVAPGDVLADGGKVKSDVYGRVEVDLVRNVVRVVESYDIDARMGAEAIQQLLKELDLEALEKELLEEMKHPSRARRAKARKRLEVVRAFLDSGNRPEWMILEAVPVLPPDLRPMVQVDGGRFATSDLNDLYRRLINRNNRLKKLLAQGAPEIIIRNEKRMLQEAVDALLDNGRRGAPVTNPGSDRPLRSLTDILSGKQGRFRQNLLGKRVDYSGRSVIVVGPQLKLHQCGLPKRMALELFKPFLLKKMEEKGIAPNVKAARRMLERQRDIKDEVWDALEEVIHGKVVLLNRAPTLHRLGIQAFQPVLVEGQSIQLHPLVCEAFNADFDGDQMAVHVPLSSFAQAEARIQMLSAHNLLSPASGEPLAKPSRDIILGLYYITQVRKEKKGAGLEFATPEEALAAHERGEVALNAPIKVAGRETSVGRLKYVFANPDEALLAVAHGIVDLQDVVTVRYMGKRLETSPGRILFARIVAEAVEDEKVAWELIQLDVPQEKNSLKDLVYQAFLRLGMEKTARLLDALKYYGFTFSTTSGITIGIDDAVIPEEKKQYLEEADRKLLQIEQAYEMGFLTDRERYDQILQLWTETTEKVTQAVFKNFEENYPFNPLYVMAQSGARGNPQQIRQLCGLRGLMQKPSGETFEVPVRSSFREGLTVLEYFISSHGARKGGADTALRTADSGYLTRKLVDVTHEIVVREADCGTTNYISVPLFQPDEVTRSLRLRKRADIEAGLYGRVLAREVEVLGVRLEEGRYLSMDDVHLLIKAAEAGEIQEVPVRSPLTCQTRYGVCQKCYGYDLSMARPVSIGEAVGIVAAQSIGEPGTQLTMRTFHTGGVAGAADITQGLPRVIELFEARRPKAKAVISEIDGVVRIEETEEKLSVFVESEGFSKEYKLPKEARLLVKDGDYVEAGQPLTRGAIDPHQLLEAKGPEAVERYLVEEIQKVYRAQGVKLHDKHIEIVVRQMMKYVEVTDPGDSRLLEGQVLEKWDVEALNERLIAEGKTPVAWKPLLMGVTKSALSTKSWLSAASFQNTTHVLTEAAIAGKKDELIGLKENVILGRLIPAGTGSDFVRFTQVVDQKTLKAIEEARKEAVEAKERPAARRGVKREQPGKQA
Thermus thermophilus RNAP, sequence (Q8RQE9 whole entry): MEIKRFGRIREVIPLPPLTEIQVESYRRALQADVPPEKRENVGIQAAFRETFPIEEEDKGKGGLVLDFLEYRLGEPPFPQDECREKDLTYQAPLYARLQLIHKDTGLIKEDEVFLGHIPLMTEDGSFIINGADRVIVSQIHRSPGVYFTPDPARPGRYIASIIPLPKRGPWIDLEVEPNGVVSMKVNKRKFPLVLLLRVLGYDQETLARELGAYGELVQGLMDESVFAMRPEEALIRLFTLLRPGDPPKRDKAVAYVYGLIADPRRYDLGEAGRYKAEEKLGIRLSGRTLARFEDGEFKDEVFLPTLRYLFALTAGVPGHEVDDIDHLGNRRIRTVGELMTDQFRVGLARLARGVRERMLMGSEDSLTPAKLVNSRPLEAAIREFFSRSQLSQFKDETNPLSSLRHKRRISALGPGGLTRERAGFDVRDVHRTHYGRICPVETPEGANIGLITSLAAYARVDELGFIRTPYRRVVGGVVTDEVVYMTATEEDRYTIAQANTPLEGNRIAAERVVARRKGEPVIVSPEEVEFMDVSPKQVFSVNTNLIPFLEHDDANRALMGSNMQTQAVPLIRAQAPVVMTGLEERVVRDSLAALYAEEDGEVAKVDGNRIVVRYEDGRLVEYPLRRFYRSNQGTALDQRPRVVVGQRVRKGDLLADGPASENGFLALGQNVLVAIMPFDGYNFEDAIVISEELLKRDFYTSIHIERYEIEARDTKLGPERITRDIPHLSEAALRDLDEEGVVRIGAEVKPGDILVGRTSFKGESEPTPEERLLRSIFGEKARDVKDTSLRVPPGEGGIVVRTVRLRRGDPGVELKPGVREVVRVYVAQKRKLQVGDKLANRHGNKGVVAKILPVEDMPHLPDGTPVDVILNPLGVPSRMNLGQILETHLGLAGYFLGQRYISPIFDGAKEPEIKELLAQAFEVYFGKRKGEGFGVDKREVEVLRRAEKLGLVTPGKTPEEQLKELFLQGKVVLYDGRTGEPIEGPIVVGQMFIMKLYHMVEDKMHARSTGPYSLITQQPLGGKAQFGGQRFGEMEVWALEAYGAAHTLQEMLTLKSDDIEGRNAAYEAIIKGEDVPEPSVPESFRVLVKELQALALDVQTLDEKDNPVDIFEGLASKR

Take `CCC(C)C1NC(=O)C(NC(=O)C(C)C(O)C(C)C)C(C)OC(=O)C2COC(=O)CNC(=O)C=CC(O)(CCl)C(C)Oc3ccc(cc3)C(NC1=O)C(=O)N(C)C(Cc1ccccc1)C(=O)NC(C(C)O)C(=O)N2` (stereo not shown) [SalB, salinamide B] (X3-TI[X4][NMeF]TS; ester 1-C; linker 3-6 via G; configuration not given here): the values for the MIC in experiment [1], in experiment [2] and in experiment [3] were 12.5 µg/mL (≈ 11.8 µM), more than 50 µg/mL and 12.5 µg/mL (≈ 11.8 µM), respectively. Further, the IC50 in experiment [4] is more than 100 µM.
